The values that follow come from patent publication US20130281413A1, “Salicylate Conjugates Useful For Treating Metabolic Disorders” (Genmedica Therapeutics SL, priority 2008, published 2013).

In data set [1] the test system is Zucker fa/fa rats or ob/ob mice. To be noted: 120 mg/kg/day subcutaneous infusion, 3-4 weeks; cited from earlier work.
The next data set deals with human diabetic patients. To be noted: 4.5 g/day; cited from earlier work.
The test system of a further data set is IKKβ. To be noted: diabetic animals; cited from earlier work.
Data set [2] has as its system β-cells. Briefly: In vivo beta cell protection model (alloxan), FIG. 6. To be noted: for effect of alloxan on β-cells: lysine salts, single i.p. administration 1 hour before alloxan 200 mg/kg. Also noted: species or system cd-1 mice. The protocol:
Beta-cell destruction was induced in cd-1 mice after 3 hours of fasting by a single intraperitoneal injection of a freshly prepared solution of alloxan 200 mg/kg (Sigma-Aldrich, San Luis, Mo.) that was dissolved in NaCl 0.9%. Single intraperitoneal drug administration was 1 hour before the alloxan administration. Animals received the different drugs dissolved in PBS pH 7.4, and the animals that not received any drug were injected with the vehicle, in this case PBS pH 7.4. At the end of the treatment, at day 4, animals were killed and the plasma collected and kept at −20° C. until used.
The circulating glucose concentration was determined by a rapid glucose analyzer (Accu-Chek Aviva; Roche). Plasma triglycerides and non esterified fatty acids were determined with standard colorimetric methods (Biosystems, Barcelona, Spain, and Wako Chemicals, Neuss, Germany, respectively). Plasma insulin concentration was determined by enzyme-linked immunosorbent assay method (CrystalChem, Downers Grove, Ill.).

The test system of data set [3] is β-cells. Briefly: Protection of β-cell failure and prevention of hyperglycemia in streptozotocin treated rats. Type of data set: in vivo.
Data set [4] concerns β-cells. Briefly: Preserving β-cell function of mice challenged by one shot of streptozotocin. Format: in vivo. To be noted: oral or intraperitoneal, prior and during 5 days following streptozotocin 45 mg/kg i.p. Here is the method:
Further, compounds of the present invention, such as Salnacedin, are tested for their efficiency at preserving β-cell function of mice challenged by one shot of streptozotocin (45 mg/kg i.p.).

A further data set relates to ob/ob and db/db mice. The data set is described as follows: Restoration of insulin sensibility in ob/ob and db/db mice. Type of data set: in vivo. Here is the method:
Eight week old ob/ob and db/db mice are treated for 3 to 4 weeks with a daily dose of 250 mg/kg of a compound of the present invention, such as […], by oral gavage or with drug mix with food or subcutaneously. […] Additionally, the levels of insulin are measured 15 min following the glucose loading to determine the capacity of the β-cells to secrete insulin.

Data set [5] concerns Zucker diabetic fatty (ZDF) rats. Briefly: Restoration of insulin sensitivity in Zucker diabetic fatty (ZDF) rats. To be noted: 250 mg/kg oral daily. Type of data set: in vivo. Here is the method:
To assess whether conjugates comprising an antioxidant agent and an inflammatory agent would prevent glucose toxicity and progression of diabetes mellitus associated with β-cell failure overtime, we assessed whether compounds of Formula (I), including salnacedin, would alter the development of the disease in this Type 2 diabetic animal model.
Zucker diabetic rats from 6 to 12 weeks of age are treated daily with an oral dose of 250 mg/kg of a compound of the present invention, such as salnacedin.

For data set [6], the system named is streptozotocin-induced diabetic mice. The data set is described as follows: Type 1 diabetic model in mice (streptozotocin 120 mg/kg i.p.). Type of data set: in vivo. To be noted: 4 weeks. The protocol:
Mice induced by streptozotocin injection (120 mg/kg i.p.) are treated for 4 weeks with 250 mg/kg/day (oral or i.p.) of a compound of the present invention, such as […]. At the end of the 4 week treatment, fasting glucose, fructosamine, triglycerides and cholesterol are measured.

The test system of data set [7] is animal models of diabetes. Briefly: Summary of effects in different animal models of diabetes. Format: in vivo.
Where [8] appears, read: 250 mg/kg/day oral or i.p., vs control group.

Regarding `O=C(O)c1ccccc1O` [Salicylate], in [1], the fasting blood glucose entry is “reduction in fasting blood glucose” and the glucose tolerance entry is “glucose tolerance improvement”.

For the compound `O=C(Oc1ccccc1C(=O)O)c1ccccc1O` [salsalate], in the data set with human diabetic patients, the “effects in human diabetic patients” value is given as “Beneficial effects” and the “side effects, such as tinnitus, enhanced by” value is 66%. For the same compound, in the data set on IKKβ, the IKKβ activity entry is on record as “decrease in IKKβ activity” and the insulin sensitivity entry is “improvement in insulin sensitivity”.

On to `CC(=O)N[C@@H](CSC(=O)c1cc(-c2ccc(F)cc2F)ccc1O)C(=O)O` [GMC-1.3b, diflunisal-(L) N-acetyl cysteine], for which, in the data set with β-cells [2], the “effect of alloxan on β-cells” value was “reduce the effect of alloxan on β-cells”.

`CC(=O)N[C@@H](CSC(=O)c1ccccc1O)C(=O)O` [Example 1, (R)-2-acetamido-3-(2-hydroxybenzoylthio)propanoic acid]: the blood glucose level entry in the data set with β-cells [3] (pretreated rats vs control group, associated with preserved capacity of β-cell to secrete insulin) is on record as “lower than the control group”. In addition, the “β-cell preservation and development of hyperglycemia” value in the data set on β-cells [3] (rats, ~250 mg/kg orally and/or intraperitoneally prior to streptozotocin 45 mg/kg i.p., followed by 4 additional treatment days) is recorded as “preserve β-cells, reducing the development of hyperglycemia”. The “levels of 8-hydroxy-deoxyguanosine (8 OhdG) and malondialdehyde+4-hydroxy-2-nonenal (4HNE)” value in the data set on β-cells [3] (streptozotocin model, markers of oxidative stress and lipid peroxidation in the blood) is on record as “reduce”. Besides, the “β-cell protection from oxidative stress and development of hyperglycemia over time” value in the data set on β-cells [4] was “protects β-cells from oxidative stress and reduces the development of hyperglycemia over time compared to control”. The insulin levels result in the data set with β-cells [2] (alloxan-treated animals, indicates pancreatic beta cell protection) is recorded as “preservation of insulin levels”. The “fasting blood glucose values” in the data set with ob/ob and db/db mice (250 mg/kg daily, 3 to 4 weeks, oral gavage, in food or subcutaneously, vs control or salicylate/antioxidant alone) is “reduced compared to the control group”. Besides, the insulin sensitivity entry in the data set with ob/ob and db/db mice (evidenced by a sustained and pronounced glucose lowering effect) is reported as “improve insulin sensitivity”. In the data set on ob/ob and db/db mice (insulin measured 15 min following the glucose loading, vs control), the “capacity of the β-cells to secrete insulin” value is reported as “greater”. The “oxidative stress and lipid peroxidation (8 OhdG, malondialdehyde, 4HNE)” value with ob/ob and db/db mice (level of associated biomarkers) is “a reduction in oxidative stress and lipid peroxidation”. For the same compound, the “levels of glutathione (GSH)” value with ob/ob and db/db mice (liver and kidney) is “restored”. For the same compound, the “inflammatory cytokines TNFα and IL-6” value with ob/ob and db/db mice (mouse, in vivo) was “reduced”. Also, in the data set on ob/ob and db/db mice (vs non treated animal), the “glucose tolerance test (OGTT or IPTT): elevation of glucose levels” value was “a reduction in the elevation of glucose levels during the test”. For the same compound, in data set [5] (6 weeks, vs control group), the Hb1Ac result is recorded as “reduced in comparison to the control group”, the cholesterol entry is listed as “reduced in comparison to the control group”, the fasting glucose result is “reduced in comparison to the control group” and the fructosamine entry is on record as “reduced in comparison to the control group”. For the same compound, the triglycerides result in [5] (6 weeks, vs control group) is reported as “reduced in comparison to the control group”. Moreover, in [5] (from 6 to 12 weeks of age), the glucose tolerance test result is reported as “improves the glucose tolerance test”, the “insulin secretion from β-cells” value is recorded as “preserves insulin secretion from β-cells” and the worsening of hyperglycemia entry is “partially prevents the worsening of hyperglycemia”. Also, in data set [6] (setting [8]), the cholesterol result is given as “reduced in comparison to control group”, the fasting glucose entry is “reduced in comparison to control group”, the fructosamine result was “reduced in comparison to control group” and the triglycerides entry is listed as “reduced in comparison to control group”. The “reduction in plasmatic parameters compared with a salicylate or an antioxidant alone” value in data set [6] (250 mg/kg/day, vs salicylic acid alone or N-acetylcysteine alone) is given as “more pronounced”. Also, the “hypolipidemic, anti-diabetic and antioxidant effects” value in data set [7] was “strong hypolipidemic and anti-diabetic effects as well as antioxidant properties”.

`CC(=O)NC(CSC(=O)c1ccccc1O)C(=O)O` (stereo not shown) [GMC-1.3a, salicylic acid-(L) N-acetyl cysteine]: the “effect of alloxan on β-cells” value with β-cells [2] is “reduce the effect of alloxan on β-cells”.
